Values of other authors as cited in patent US9060510B2 (priority 2005, dated 2015).
Like-named read-outs stand apart in the source and are kept apart here.

Row | Molecule | water-solubility (at pH 7.0, 20° C.) | water-solubility (at pH 4.0, 20° C.)
1 | CCN(Cc1ccc(Cl)nc1)/C(=C/[N+](=O)[O-])NC [Nitempyram, (E)-N-(6-chloro-3-pyridylmethyl)-N-ethyl-N′-methyl-2-nitrovinylidenediamine] | > 590 mg/mL | –
2 | (E)-1-(2-chloro-1,3-thiazol-5-yl)-3-methyl-2-nitroguanidine [Clothianidin] | – | 0.304 mg/mL
